Results from patent US20250041176A1, “An antimicrobial composition” (Conopco, Inc., d/b/a UNILEVER, priority 2021, published 2025).

Test system: C. acnes (ATCC 6919)
Assay: Growth of C. acnes, MIC plate method
Assay type: cell-based, Cutibacterium acnes
Conditions: actives at the stated % in 20 ml agar; 10 μl inoculum spotted; 37° C. 4-5 days anaerobically
Method: The actives whether used singly or in combination as shown in Table-1 were tested for growth of C. acnes using the invitro protocol as given below:
Protocol used for Measuring Growth (MIC Plate Method)
Working Cultures of Test Organisms
For C. acnes (ATCC 6919): Approximately 4-5 days prior to testing, a sterile plate of […] (RCM Agar) was inoculated with the challenge bacterial test organism and incubated at 37° C.±1° C. for 4-5 days anaerobically.
Test Organism Suspensions (To Be Prepared Just Before Use)
A suspension of the challenge microorganism was prepared in sterile 0.85% saline and a cell density were adjusted at 620 nm to achieve a challenge suspension concentration of approximately 1.0×10^8 colony forming units per ml for bacteria
Preparation of Sample Concentrations
• a) Aliquot of samples were taken to achieve required test concentration in 20 ml of agar system. • b) Test samples were initially dissolved in 1 ml of sample diluent (sterile d/water or solvent) to get test solutions • c) The test solutions were added to 20 ml sterile molten agar maintained at a temperature of 45-50° C., mixed thoroughly and poured into petri plates. The agar was allowed to solidify at room temperature. • d) On solidification, 10μl inoculum of prepared test culture was spotted onto respective agar surfaces in duplicates • e) The inoculated plates were allowed to stand at room temperature until the inoculum spots had been absorbed into the agar. The plates were incubated at 37° C. ±1° C. for 4-5 days anaerobically. After completion of incubation, plates were checked for growth and no growth to determine the MIC value.

| SMILES | Observation (growth of C. acnes) |
| --- | --- |
| CCC(C)c1ccc(O)cc1 (stereo not drawn) [C, 4 sec butyl phenol] | Growth |
| Oc1ccc(C2CCCC2)cc1 [E, 4 cyclo pentyl phenol] | Growth |
| CCCCCCc1ccc(O)cc1O [Example A, 4 hexyl resorcinol] | Growth |
